{"source": "ChEMBL document CHEMBL5696442", "about": "“Discovery of type II inhibitors of TGFβ-activated kinase 1 (TAK1) and mitogen-activated protein kinase kinase kinase kinase 2 (MAP4K2)” (J Med Chem, 2015)", "key": {"[1]": {"target": "T1, Eukaryotic translation initiation factor 2-alpha kinase 3 (Homo sapiens) (UniProt Q9NZJ5)", "T1 sequence (whole entry)": "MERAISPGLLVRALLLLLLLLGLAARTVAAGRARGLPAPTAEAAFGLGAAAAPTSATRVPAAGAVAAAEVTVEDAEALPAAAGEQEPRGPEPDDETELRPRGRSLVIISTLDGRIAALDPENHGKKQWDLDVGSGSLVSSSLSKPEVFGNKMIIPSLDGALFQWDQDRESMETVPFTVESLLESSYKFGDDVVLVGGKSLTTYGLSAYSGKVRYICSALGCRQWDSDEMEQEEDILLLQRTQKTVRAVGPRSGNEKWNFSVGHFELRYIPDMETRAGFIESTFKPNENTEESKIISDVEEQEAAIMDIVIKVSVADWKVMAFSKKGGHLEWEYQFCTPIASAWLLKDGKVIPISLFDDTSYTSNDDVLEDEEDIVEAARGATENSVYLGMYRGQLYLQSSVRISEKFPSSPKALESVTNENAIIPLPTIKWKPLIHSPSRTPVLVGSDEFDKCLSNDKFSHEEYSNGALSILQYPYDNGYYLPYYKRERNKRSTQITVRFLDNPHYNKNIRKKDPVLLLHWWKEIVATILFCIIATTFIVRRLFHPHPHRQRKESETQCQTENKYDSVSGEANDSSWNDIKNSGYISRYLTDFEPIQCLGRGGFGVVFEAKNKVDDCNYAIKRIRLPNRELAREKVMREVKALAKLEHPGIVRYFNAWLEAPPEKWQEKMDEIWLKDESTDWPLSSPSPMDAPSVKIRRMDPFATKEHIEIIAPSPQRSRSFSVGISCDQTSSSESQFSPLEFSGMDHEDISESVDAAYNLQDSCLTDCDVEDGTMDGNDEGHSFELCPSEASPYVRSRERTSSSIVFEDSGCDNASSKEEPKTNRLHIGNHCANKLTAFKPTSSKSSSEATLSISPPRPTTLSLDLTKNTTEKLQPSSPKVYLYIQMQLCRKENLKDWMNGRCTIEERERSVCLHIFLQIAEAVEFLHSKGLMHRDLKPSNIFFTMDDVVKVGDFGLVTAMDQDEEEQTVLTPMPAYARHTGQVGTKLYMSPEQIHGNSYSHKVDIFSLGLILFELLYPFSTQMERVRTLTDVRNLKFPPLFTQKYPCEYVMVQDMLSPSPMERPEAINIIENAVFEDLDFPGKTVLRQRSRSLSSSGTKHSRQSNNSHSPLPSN", "assay": "Inhibition of PEK Lys2 labeling site in human Huh-7 cells at 1 uM by KiNativ Profiling analysis relative to control", "assay_type": "cell-based"}, "[2]": {"target": "T2, Serine/threonine-protein kinase ULK3 (Homo sapiens) (UniProt Q6PHR2)", "T2 sequence (whole entry)": "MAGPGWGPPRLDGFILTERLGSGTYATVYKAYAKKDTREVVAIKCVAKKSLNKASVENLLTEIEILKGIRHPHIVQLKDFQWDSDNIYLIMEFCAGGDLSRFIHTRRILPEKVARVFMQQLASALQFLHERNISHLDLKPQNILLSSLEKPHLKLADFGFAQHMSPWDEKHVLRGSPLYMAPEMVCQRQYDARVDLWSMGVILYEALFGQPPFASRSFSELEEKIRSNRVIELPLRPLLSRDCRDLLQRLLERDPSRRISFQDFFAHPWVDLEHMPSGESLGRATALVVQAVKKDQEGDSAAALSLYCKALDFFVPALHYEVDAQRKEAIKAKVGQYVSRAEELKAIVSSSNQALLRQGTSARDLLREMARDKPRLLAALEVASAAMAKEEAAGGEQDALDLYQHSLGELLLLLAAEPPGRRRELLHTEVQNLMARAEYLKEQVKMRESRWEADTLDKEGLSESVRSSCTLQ", "assay": "Inhibition of ULK3 Lys1 labeling site in human Huh-7 cell lysate at 1 uM by KiNativ Profiling analysis relative to control", "assay_type": "subcellular"}, "[3]": {"target": "Calcium/calmodulin-dependent protein kinase type II subunit gamma (Homo sapiens) (UniProt Q13555)", "sequence (Q13555 whole entry)": "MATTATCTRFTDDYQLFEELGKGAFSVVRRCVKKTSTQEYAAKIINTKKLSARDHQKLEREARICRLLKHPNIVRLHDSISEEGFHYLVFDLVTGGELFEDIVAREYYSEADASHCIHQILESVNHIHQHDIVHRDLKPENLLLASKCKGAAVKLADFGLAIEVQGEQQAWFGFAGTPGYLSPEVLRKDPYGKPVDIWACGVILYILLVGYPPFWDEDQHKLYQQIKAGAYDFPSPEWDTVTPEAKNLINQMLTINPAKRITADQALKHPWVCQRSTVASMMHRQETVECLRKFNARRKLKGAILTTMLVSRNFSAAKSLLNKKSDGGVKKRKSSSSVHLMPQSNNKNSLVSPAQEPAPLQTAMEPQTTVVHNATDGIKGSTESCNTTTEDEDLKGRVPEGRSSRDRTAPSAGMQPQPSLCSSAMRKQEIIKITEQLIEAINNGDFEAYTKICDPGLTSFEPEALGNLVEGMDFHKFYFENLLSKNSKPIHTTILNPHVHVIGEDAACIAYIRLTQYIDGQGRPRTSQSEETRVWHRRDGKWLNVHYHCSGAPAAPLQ", "assay": "Inhibition of CaMK2g Lys1 labeling site harbouring TSTQEYAAKIINTK in human Huh-7 cells at 1 uM by KiNativ Profiling analysis relative to control", "assay_type": "cell-based"}, "[4]": {"target": "Serine/threonine-protein kinase WNK2 (Homo sapiens) (UniProt Q9Y3S1)", "sequence (Q9Y3S1 whole entry)": "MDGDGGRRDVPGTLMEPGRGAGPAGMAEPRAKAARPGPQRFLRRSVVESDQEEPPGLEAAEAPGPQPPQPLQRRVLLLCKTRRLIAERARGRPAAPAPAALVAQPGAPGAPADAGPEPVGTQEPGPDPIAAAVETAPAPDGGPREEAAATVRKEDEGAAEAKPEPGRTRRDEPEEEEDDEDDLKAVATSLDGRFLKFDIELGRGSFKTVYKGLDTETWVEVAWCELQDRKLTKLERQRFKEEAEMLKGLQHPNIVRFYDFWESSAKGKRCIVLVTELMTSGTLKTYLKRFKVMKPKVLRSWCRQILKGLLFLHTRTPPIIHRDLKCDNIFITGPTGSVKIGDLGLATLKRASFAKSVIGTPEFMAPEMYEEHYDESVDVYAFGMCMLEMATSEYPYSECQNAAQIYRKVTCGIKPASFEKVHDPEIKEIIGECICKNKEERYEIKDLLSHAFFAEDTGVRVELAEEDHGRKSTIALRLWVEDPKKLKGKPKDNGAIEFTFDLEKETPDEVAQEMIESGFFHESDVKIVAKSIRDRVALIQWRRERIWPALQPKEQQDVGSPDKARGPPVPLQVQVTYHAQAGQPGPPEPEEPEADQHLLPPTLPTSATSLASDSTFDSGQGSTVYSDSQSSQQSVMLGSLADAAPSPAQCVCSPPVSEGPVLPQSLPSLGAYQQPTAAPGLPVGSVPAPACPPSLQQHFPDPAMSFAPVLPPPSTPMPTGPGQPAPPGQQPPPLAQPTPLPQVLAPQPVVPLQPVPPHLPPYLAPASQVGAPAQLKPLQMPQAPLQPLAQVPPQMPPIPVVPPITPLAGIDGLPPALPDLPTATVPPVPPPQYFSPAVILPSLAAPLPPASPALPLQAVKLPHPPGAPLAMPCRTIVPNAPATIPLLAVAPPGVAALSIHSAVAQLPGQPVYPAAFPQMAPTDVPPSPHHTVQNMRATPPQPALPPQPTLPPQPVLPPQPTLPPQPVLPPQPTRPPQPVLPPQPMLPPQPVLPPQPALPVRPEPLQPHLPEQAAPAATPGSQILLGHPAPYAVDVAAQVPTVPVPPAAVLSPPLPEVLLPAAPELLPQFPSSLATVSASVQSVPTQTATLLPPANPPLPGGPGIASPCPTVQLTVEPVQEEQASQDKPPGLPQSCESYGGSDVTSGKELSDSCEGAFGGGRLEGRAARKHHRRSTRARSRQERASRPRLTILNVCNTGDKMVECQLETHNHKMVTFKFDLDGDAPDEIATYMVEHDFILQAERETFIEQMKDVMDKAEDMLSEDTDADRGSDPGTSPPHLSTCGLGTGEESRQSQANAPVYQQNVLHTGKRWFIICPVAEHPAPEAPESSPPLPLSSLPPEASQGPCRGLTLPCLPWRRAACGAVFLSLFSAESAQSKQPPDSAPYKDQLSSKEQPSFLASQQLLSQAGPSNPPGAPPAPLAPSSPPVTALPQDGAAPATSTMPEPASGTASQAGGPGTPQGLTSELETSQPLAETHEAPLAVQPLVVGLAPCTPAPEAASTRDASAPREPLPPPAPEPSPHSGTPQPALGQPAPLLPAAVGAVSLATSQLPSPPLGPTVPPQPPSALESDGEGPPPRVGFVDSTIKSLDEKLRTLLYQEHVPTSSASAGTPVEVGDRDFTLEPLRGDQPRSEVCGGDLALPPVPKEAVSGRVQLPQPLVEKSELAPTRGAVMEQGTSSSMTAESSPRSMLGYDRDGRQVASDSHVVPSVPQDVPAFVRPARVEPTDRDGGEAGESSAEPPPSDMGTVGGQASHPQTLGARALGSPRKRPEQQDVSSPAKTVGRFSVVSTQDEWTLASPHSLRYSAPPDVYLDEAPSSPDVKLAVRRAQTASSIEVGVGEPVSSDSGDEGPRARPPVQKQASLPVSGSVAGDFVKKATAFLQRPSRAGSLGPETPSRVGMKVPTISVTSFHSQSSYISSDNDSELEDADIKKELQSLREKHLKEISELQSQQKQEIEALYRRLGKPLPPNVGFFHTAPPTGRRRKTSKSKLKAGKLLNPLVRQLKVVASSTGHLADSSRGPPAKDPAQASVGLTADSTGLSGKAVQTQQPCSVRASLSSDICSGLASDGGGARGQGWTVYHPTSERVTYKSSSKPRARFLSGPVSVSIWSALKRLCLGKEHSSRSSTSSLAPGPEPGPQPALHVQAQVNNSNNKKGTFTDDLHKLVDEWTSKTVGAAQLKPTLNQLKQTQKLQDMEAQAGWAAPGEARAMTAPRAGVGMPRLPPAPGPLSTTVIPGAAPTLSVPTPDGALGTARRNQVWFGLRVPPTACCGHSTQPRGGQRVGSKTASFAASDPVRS", "assay": "Inhibition of Wnk2 Lys2 labeling site in human Huh-7 cells at 1 uM by KiNativ Profiling analysis relative to control", "assay_type": "cell-based"}, "[5]": {"target": "Cyclin-dependent kinase 5 (Homo sapiens) (UniProt Q00535)", "sequence (Q00535 whole entry, looked up)": "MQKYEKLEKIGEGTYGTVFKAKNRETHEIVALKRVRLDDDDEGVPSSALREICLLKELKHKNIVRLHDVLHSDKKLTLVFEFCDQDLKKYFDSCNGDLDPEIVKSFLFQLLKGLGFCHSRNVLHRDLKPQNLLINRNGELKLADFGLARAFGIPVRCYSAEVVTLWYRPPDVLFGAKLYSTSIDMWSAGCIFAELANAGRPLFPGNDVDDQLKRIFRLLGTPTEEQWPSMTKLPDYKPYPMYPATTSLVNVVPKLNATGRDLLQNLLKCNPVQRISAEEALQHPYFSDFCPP", "assay": "Inhibition of CDK5 (unknown origin) at 10 uM by Ambit Kinomescan binding assay relative to control"}, "[6]": {"test_system": "Epidermal growth factor receptor (Homo sapiens), P00533 [G719C]", "sequence (P00533 whole entry G719C)": "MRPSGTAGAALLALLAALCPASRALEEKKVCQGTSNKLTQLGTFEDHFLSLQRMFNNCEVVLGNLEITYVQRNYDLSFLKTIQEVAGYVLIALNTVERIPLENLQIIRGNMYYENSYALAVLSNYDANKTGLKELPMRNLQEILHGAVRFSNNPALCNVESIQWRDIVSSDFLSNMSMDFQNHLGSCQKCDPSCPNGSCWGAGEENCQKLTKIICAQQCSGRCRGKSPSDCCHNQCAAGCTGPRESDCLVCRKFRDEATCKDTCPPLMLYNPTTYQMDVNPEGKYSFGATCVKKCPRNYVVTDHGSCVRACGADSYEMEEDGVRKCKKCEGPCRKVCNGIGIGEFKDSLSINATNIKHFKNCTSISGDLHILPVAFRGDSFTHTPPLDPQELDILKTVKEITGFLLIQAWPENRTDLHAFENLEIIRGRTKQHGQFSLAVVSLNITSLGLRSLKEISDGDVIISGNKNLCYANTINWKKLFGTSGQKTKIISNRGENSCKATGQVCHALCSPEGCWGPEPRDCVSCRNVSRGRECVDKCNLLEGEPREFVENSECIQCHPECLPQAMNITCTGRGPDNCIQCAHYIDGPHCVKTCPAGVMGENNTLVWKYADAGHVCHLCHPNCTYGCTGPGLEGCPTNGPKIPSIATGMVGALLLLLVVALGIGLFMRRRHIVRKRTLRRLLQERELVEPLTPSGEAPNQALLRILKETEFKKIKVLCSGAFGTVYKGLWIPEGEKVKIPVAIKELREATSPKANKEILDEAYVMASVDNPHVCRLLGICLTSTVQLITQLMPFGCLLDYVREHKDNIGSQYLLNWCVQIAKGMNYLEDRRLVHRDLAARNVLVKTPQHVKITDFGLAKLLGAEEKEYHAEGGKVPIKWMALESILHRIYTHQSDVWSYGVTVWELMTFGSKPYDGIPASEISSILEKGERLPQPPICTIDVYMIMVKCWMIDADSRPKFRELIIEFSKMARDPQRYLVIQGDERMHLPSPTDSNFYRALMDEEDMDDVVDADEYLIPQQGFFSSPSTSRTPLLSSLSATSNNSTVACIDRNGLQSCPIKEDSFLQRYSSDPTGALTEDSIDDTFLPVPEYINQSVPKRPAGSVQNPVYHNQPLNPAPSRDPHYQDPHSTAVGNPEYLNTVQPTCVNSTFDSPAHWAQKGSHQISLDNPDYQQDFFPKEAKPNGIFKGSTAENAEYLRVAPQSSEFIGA", "assay": "Inhibition of EGFR G719C mutant (unknown origin) at 10 uM by Ambit Kinomescan binding assay relative to control"}, "[7]": {"target": "Calcium/calmodulin-dependent protein kinase kinase 2 (Homo sapiens) (UniProt Q96RR4)", "sequence (Q96RR4 2-588 limits assumed)": "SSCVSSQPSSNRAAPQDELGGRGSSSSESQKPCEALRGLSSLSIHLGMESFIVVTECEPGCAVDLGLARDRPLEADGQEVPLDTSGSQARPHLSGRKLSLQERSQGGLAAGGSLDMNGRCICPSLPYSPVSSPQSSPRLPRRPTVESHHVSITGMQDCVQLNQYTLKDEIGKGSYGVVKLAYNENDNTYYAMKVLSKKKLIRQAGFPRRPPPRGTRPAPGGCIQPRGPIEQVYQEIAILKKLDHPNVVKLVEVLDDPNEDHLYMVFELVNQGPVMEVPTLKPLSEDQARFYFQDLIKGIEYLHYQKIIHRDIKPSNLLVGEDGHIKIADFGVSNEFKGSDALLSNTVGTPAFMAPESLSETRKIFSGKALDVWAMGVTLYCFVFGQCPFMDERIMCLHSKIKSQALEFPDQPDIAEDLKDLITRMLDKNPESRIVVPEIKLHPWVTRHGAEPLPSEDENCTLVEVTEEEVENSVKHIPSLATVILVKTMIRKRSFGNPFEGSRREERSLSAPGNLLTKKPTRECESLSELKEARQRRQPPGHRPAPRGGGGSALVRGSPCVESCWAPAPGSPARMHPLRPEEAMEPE", "assay": "Inhibition of CaMKK2 Lys1 labeling site in human A-375 cells at 0.5 uM by KiNativ Profiling analysis relative to control", "assay_type": "cell-based"}, "[8]": {"target": "T3, Serine/threonine-protein kinase D3 (Homo sapiens) (UniProt O94806)", "T3 sequence (whole entry)": "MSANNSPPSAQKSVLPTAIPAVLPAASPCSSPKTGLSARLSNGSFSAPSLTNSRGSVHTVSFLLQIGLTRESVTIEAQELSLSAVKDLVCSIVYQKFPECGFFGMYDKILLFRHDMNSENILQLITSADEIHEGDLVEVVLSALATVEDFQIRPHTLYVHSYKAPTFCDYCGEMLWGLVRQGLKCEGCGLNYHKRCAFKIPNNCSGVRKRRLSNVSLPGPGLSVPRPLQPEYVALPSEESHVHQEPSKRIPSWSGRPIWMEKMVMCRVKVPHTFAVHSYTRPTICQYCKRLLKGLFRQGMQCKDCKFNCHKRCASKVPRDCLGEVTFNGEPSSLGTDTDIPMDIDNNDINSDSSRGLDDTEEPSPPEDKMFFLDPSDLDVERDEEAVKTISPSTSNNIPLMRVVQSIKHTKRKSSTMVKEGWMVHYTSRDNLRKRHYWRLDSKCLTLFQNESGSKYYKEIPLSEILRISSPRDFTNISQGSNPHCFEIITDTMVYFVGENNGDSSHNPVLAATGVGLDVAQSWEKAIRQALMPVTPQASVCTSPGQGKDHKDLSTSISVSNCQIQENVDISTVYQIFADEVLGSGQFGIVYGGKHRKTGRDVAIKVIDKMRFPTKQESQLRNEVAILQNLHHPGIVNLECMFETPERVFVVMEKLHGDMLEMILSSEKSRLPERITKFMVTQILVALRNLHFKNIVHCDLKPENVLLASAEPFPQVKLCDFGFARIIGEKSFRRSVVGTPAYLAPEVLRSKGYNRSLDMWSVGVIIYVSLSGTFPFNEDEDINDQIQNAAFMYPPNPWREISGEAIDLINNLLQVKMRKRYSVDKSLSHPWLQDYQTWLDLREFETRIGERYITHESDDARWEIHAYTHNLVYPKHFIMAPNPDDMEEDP", "assay": "Inhibition of PKD3 Lys2 labeling site in human A-375 cells at 0.5 uM by KiNativ Profiling analysis relative to control", "assay_type": "cell-based"}}, "data": [{"compound": "CNc1cc(Oc2cc(C(=O)Nc3cc(N4CCN(C)CC4)cc(C(F)(F)F)c3)ccc2C)ncn1", "values": [{"measurement": "inhibition", "setting": "[1]", "value": 16.8, "unit": "%"}, {"measurement": "inhibition", "setting": "[2]", "value": -5.1, "unit": "%"}, {"measurement": "inhibition", "setting": "[3]", "value": 27.1, "unit": "%"}, {"measurement": "inhibition", "setting": "[4]", "value": 15.3, "unit": "%"}]}, {"compound": "CCN1CCN(Cc2ccc(NC(=O)c3ccc(C)c(Oc4ccnc5[nH]ccc45)c3)cc2C(F)(F)F)CC1", "values": [{"measurement": "inhibition", "setting": "[5]", "value": 19, "unit": "%"}, {"measurement": "inhibition", "setting": "[6]", "value": 12, "unit": "%"}, {"measurement": "inhibition", "setting": "[7]", "value": 6.3, "unit": "%"}]}, {"compound": "CCN1CCN(Cc2ccc(NC(=O)c3ccc(C)c(/C=C/c4cnc5[nH]ccc5c4OC)c3)cc2C(F)(F)F)CC1", "values": [{"measurement": "inhibition", "setting": "[8]", "value": -8.8, "unit": "%"}]}]}
